Biological target: T1, ACVR1B (ALK4) (Homo sapiens, UniProt P36896)
T1 construct: purchased Thermo Fisher Scientific (Life Technologies) SelectScreen
Test: SelectScreen Z'LYTE
Type: biochemical
How it was run: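 Compound tested in SelectScreen activity assays, Z'LYTE for CSF1R, CDK1/cyclin B and MAP2K6 and Adapta for CAMK1. ATP for CAMK1 was listed as 10, and Km app was used for CSF1R. Results are expressed in percent.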

T1 sequence (P36896 24-505): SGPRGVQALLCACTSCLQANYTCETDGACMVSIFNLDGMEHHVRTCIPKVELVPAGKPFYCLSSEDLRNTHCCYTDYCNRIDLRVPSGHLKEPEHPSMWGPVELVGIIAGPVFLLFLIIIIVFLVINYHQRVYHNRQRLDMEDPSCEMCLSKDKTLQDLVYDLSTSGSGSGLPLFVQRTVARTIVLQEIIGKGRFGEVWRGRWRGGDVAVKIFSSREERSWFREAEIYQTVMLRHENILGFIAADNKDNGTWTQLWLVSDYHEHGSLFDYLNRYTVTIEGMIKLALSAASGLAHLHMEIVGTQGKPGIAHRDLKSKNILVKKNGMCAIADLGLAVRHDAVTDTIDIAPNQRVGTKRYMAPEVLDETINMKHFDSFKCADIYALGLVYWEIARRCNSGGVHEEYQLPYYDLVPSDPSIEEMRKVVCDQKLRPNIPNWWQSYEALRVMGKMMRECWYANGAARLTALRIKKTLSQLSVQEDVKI

For `CN(C(=O)CN1CCOCC1)c1ccc2sc3c(-c4cccc5c(=O)cc(N6CC7CCC(C6)O7)oc45)cccc3c2c1` [NU5455], the inhibition at 1 µM was 2%.
